Reference: patent US20170037091A1, “STY PEPTIDES FOR INHIBITION OF ANGIOGENESIS” (RESEARCH DEVELOPMENT FOUNDATION, priority 2014, published 2017)

What was measured:
[1] = tested on: primate ocular endothelial retina/choroid ocular endothelial cells (RF/6A); experiment: XTT cell proliferation assay, RF/6A ocular endothelial cells; format: cell-based; settings: 30 mg/100 mL, XTT at 72 h
Method: (§1) A 26 amino acid sequence corresponding to a Ser-Thr-Tyr domain within RTEF-1 (FIG. 1), linked to a 10 amino acid cell importation signal (RMR) was synthesized (GenScript NJ). Human ocular melanoma cells (Mel 270, Mel 202), retinoblastoma cells (Y79; ATTC, MD), primate ocular endothelial retina/choroid ocular endothelial cells (RF/6A; ATCC, MD), human retinal pigment epithelial cells (ARPE19; ATCC, MD), and the CRL 1500 breast cancer cell line (ATCC, MD) were plated into 96 well plates and cultured for 24 h. Recombinant STY-RMR peptide was added to the cell culture media at various concentrations (10 to 30 mg/100 mL).
(§2) Cell proliferation was assessed at 72 h using a colorimetric XTT assay (Roche Diagnostics, Indianpolis, Conn., USA). Cell proliferation was expressed as a percentage and compared with untreated control cell growth (N=3).

[2] = tested on: secreted VEGF, ocular melanoma cell line 270; experiment: VEGF ELISA of culture media, Mel 270 cells; format: cell-based, human; settings: 30 mg/100 mL, three days
Method: as §1
(§3) The amount of VEGF within the media was determined by VEGF ELISA (R&D Systems, MN, USA) and compared between STY-RMR treated and controls (N=3).

[3] = tested on: secreted VEGF, breast cancer cells (CRL 1500); experiment: VEGF ELISA of culture media, CRL 1500 breast cancer cells; format: cell-based, human; settings: 0.1 μg/100 μL, three days
Method: as §1, with “Recombinant STY-RMR peptide was added to the cell culture media at various concentrations (10 to 30 mg/100 mL).” left out
as §3

[4] = tested on: secreted VEGF, ARPE19 cells; experiment: VEGF ELISA of culture media, ARPE19 cells; format: cell-based, human; settings: 30 mg/100 mL, three days
Method: as §1, §3

[5] = tested on: human retinal pigment epithelial cells (ARPE19); experiment: XTT cell proliferation assay, ARPE-19 cells; format: cell-based; settings: 30 mg/100 mL, XTT at 72 h
Method: as §1, §2

[6] = tested on: Human ocular melanoma cells (Mel 270); experiment: XTT cell proliferation assay, Mel 270 ocular melanoma cells; format: cell-based; settings: 30 mg/100 mL, XTT at 72 h
Method: as §1, §2

[7] = tested on: secreted VEGF in the media of all tested cell lines; experiment: VEGF ELISA of culture media, all tested cell lines (summary statement); format: cell-based; settings: all tested cell lines exposed to STY-RMR
Method: as §1, §3

[8] = tested on: CRL 1500 breast cancer cell line; experiment: XTT cell proliferation assay, CRL 1500 breast cancer cells; format: cell-based, human
Method: as §1, with “Recombinant STY-RMR peptide was added to the cell culture media at various concentrations (10 to 30 mg/100 mL).” left out
as §2

[9] = tested on: Human ocular melanoma cells (Mel 202); experiment: XTT cell proliferation assay, Mel 202 ocular melanoma cells; format: cell-based; settings: 30 mg/100 mL, XTT at 72 h, N=3
Method: as §1, §2

[10] = tested on: secreted VEGF, ocular retinal-choroidal derived vascular endothelial cells (RF/6A); experiment: VEGF ELISA of culture media, RF/6A cells; format: cell-based, primate; settings: 30 mg/100 mL, three days
Method: as §1, §3

With “STY-RMR: 26 amino acid STY domain of RTEF-1 linked to 10 amino acid RMR cell importation signal; 36 amino acids (SEQ ID NO:2) (SSFYGVSSQYESPENMIITCSTKVCSRMRRMRRMRR)” the “inhibition of RF/6A ocular endothelial cell proliferation” value [1] was 42%, the “reduction in secreted VEGF levels, ocular melanoma cell line 270 (ELISA)” value [2] was 81% and the “decrease of VEGF levels in breast tumor cells (ELISA)” value [3] was 78%. For the same substance, the “reduction of VEGF levels compared to control, ARPE19 cells (ELISA)” value [4] was 88%, the “inhibition of ARPE-19 retinal pigment epithelial cell proliferation” value [5] was 75% and the “inhibition of Mel270 ocular melanoma cell proliferation below control” value [6] was 60%. The “secreted VEGF in the media, result in words” value [7] was “decreased”, the “inhibition of breast cancer cell (CRL 1500) proliferation” value (“inhibition of breast cancer cell” below) ([8]; 0.1 μg/100 μL twice a day for three days) was 9% and the “inhibition of breast cancer cell” value ([8]; 0.2 μg/100 μL twice a day for three days) was 27%. The “inhibition of breast cancer cell” value ([8]; 0.5 μg/100 μL twice a day for three days) was 27%, the “inhibition of breast cancer cell” value ([8]; 1 μg/100 μL twice a day for three days) was 27% and the “inhibition of breast cancer cell” value ([8]; 5 μg/100 μL twice a day for three days) was 50%. For the same substance, the “inhibition of breast cancer cell” value ([8]; 6 μg/100 μL twice a day for three days) was 50%, the “inhibition of Mel 202 ocular melanoma cell proliferation” value [9] was 87% and the “reduction of secreted VEGF, RF/6A ocular vascular endothelial cells (ELISA)” value [10] was 80%.
